This note sets out measurements from patent US20240239790A1, “7-Morpholino-1,6-Naphthyridin-5-yl Derivatives and Pharmaceutical Compositions Thereof Useful as DNA-PK Inhibitor” (adMare Therapeutics Society, priority 2021, published 2024).

Data set [1] addresses T1, DNA-PK (Homo sapiens, UniProt P78527).
T1 construct: purchased Invitrogen PR9107A
The experiment in a line: DNA-PK Assay for Biochemical Enzymatic Inhibition (ADP Glo Kinase assay). To be noted: DNA-PK enzyme. An outline of the steps: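 Human DNA-PK (25 ng) preincubated 15 min with compounds (ten three-fold dilutions) in HEPES pH 7.5, MgCl2, KCl, calf thymus DNA buffer, then substrate 434.4 μM and ATP 64.4 μM (final) for 60 min at room temperature. ADP-Glo luminescence; percent inhibition fitted by four-parameter regression for IC50.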
(In general: ADP-Glo first removes unused ATP, then detects ADP through luciferase.)

Data set [2] can be described thus: Microsomal Stability Assay, mouse liver microsomes. Type of data set: in vitro ADME. To be noted: for microsomal CLint at 0.1 uM: male, CD-1, pH 7.4, mouse liver microsomes 0.1 mg/mL, 0.1 uM compound; for Microsomal Stability Mouse % rem. 60 min: mouse liver microsomes. The procedure: Samples were then mixed and centrifuged. Supernatants were used for HPLC-MS/MS analysis. […] Peak areas corresponding to the test compound were recorded.
In general terms: Liver microsomes are a subcellular fraction often used to study metabolism.

Data set [3] addresses T2, DNA-PK phosphorylation at Serine 2056 (Homo sapiens, UniProt P78527).
T2 construct: FaDu cells were purchased from ATCC; host or cells: FaDu
Briefly: Cellular Assay for Inhibition of DNA-PK Phosphorylation at Serine 2056 in FaDu cells (sandwich ELISA, neocarzinostatin). The format is cell-based. To be noted: pSer2056 DNA-PK. An outline of the steps:
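pSer2056 and total DNA-PK were measured by sandwich ELISA in BCA-normalised FaDu lysates. Cells had 1 h compound exposure (0.3% DMSO), then 2 h with 1 μg/mL final neocarzinostatin. IC50 was fitted (variable slope) to % inhibition scaled against NCS-stimulated and DMSO-only controls.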

In data set [4] the test system is pDNA-PK induction in HCT116 tumour spheroids. Briefly: Multicellular tumour spheroid + radiation, pDNA-PK (ser2056) inhibition, immunohistochemical endpoint, HCT116. The format is cell-based. The settings on record: Homo sapiens, 20 Gy, 20% O2. An outline of the steps:
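HCT116 spheroids (~0.5 mm) in MEM/10% FBS, 20% O2, 37° C., pre-incubated 1 h with compound (10 or 5 μM down to 3.5 nM), irradiated 20 Gy, then 2 h further with compound. Cryosections immunostained for pDNA-PK ser2056; EC50 is concentration halving radiation-induced pDNA-PK.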

Data set [5] concerns FaDu cell line. Briefly: Prodrug Activation in Hypoxic Stirred Tumour Cell Suspensions. To be noted: 10 μM, 4 hours.
Data set [6] has as its system pH2AX induction in HCT116 ATM-/- multicellular tumour spheroids. The experiment in a line: Prodrug Radiation Sensitization in Multicellular Tumour Spheroids, inhibition of pH2AX induction following radiation. The format is cell-based. The settings on record: Homo sapiens, HCT-116, 20 Gy. An outline of the steps: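 Endpoint: pH2AX (ser 139) or pDNA-PK (ser 2056) in cryosections fixed 1 or 2 h after 20 Gy, comparing oxygenated outer with hypoxic inner layers. Spheroids of ~0.5 mm (HCT116, FaDu; ATM-deficient cells used) held at 20% or 5% O2, 37 °C, stirred. Prodrug range 3.5 nM–10 μM.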

Where [7] appears, read: neocarzinostatin 1 μg/mL, Table 1.
Setting [8] is: HCT-116, 2 h, spheroids, Example 8, read-out: Cell line: HCT116 Immunohistochemical endpoint pDNA-PK inhibition EC50.
Where [9] appears, read: HCT-116, 2 hours following radiation, Example 9 Study 2, read-out: Spheroid Cell line: HCT116 Immunohistochemical endpoint pDNA-PK inhibition EC50.
The mark [10] stands for this setting: HCT-116, Spheroid, Cell Line: HCT115 (so in the source), 2 hours following radiation, Example 7, read-out: EC50, Immunohistochemical endpoint, pDNA-PK inhibition.

Each structure is given as a SMILES string. Read-outs that look alike come from different tables or passages of the source.

`Cn1cc([C@H]2CC[C@@H](Oc3nc(N4CCOCC4)cc4ncc(OCCO)cc34)CC2)cn1` [Compound 5, 2-((5-(((1s,4s)-4-(1-methyl-1H-pyrazol-4-yl)cyclohexyl)oxy)-7-morpholino-1,6-naphthyridin-3-yl)oxy)ethan-1-ol]: the IC50 in data set [1] (Table 1) lay within 0.001 to 0.01 µM; in data set [3] (setting [7]), 10 to 30 µM. In data set [2], this compound came in with a microsomal CLint at 0.1 uM of over 116 µL/min/mg. Besides, the “Microsomal Stability Mouse % rem. 60 min” value in data set [2] was “E (% remaining = 0-25%)”. The EC50 in data set [4] (setting [8]), in data set [4] (setting [9]) and in data set [4] (setting [10]) was 1 to 10 µM in each case.
In the case of `CC1(C)CN(c2cc3ncccc3c(O[C@H]3CC[C@@H](n4ccnc4)CC3)n2)CC(C)(C)O1` [Compound 12, 4-(5-(((1s,4s)-4-(1H-imidazol-1-yl)cyclohexyl)oxy)-1,6-naphthyridin-7-yl)-2,2,6,6-tetramethylmorpholine], in data set [1] (Table 1), the IC50 was 0.01 to 0.15 µM. Also, in data set [2], the microsomal CLint at 0.1 uM is over 116 µL/min/mg and the “Microsomal Stability Mouse % rem. 60 min” value is reported as “E (% remaining = 0-25%)”.
Regarding `NC(=O)N[C@H]1CC[C@@H](Oc2nc(N3CCOCC3)cc3ncccc23)CC1` [Compound 15, 1-((1s,4s)-4-((7-morpholino-1,6-naphthyridin-5-yl)oxy)cyclohexyl)urea], the IC50 is 0.001 to 0.01 µM in data set [1] (Table 1) and 0.1 to 1 µM in data set [3] (setting [7]). The same compound had a microsomal CLint at 0.1 uM in data set [2] of over 116 µL/min/mg. The “Microsomal Stability Mouse % rem. 60 min” value in data set [2] was “E (% remaining = 0-25%)”. The 50% effective concentration (EC50) in data set [4] (setting [8]), in data set [4] (setting [9]) and in data set [4] (setting [10]) was 1 to 10 µM throughout.
Consider `c1ccc(-c2cnc3cc(N4CCOCC4)nc(O[C@H]4CC[C@@H](n5ccnc5)CC4)c3c2)cc1` [Compound 156, 4-(5-(((1s,4s)-4-(1H-imidazol-1-yl)cyclohexyl)oxy)-3-phenyl-1,6-naphthyridin-7-yl)morpholine], for which, in data set [1] (Table 1), the IC50 is 0.01 to 0.15 µM. Moreover, in data set [2], the microsomal CLint at 0.1 uM was over 116 µL/min/mg and the “Microsomal Stability Mouse % rem. 60 min” value is recorded as “E (% remaining = 0-25%)”.
Regarding `Cc1noc(C)c1-c1cnc2cc(N3CCOCC3)nc(O[C@H]3CC[C@@H](n4ccnc4)CC3)c2c1` [Compound 157, 4-(5-(((1s,4s)-4-(1H-imidazol-1-yl)cyclohexyl)oxy)-3-(3,5-dimethylisoxazol-4-yl)-1,6-naphthyridin-7-yl)morpholine], the IC50 was 0.001 to 0.01 µM in data set [1] (Table 1) and 1 to 10 µM in data set [3] (setting [7]). This compound showed a microsomal CLint at 0.1 uM in data set [2] of over 116 µL/min/mg. Moreover, the “Microsomal Stability Mouse % rem. 60 min” value in data set [2] is “E (% remaining = 0-25%)”.
In the case of `Cn1cc(-c2cnc3cc(N4CCOCC4)nc(O[C@H]4CC[C@@H](n5ccnc5)CC4)c3c2)cn1` [Compound 158, 4-(5-(((1s,4s)-4-(1H-imidazol-1-yl)cyclohexyl)oxy)-3-(1-methyl-1H-pyrazol-4-yl)-1,6-naphthyridin-7-yl)morpholine], in data set [1] (Table 1), the IC50 is 0.01 to 0.15 µM. In data set [2], the microsomal CLint at 0.1 uM is over 116 µL/min/mg and the “Microsomal Stability Mouse % rem. 60 min” value is “E (% remaining = 0-25%)”. The compound also registered an IC50 in data set [3] (setting [7]) of 0.1 to 1 µM.
Turning to `Cn1c(COc2cnc3cc(N4CCOCC4)nc(O[C@H]4CC[C@@H](Nc5ncccn5)CC4)c3c2)cnc1[N+](=O)[O-]` [LFA118, N-[4-[[3-[(3-Methyl-2-nitro-imidazol-4-yl)methoxy]-7-morpholino-1,6-naphthyridin-5-yl]oxy]cyclohexyl]pyrimidin-2-amine], the IC50 in data set [1] (Table 2) was 0.01 to 0.15 µM; in data set [3] (Table 2), 10 to 30 µM. In addition, the “Fraction of prodrug converted to active form, Hypoxic 0.2% O2” value in data set [5] (0.2% O2) is “A (A is 0.15 to 1)”. The “Fraction of prodrug converted to active form, Oxic 5% O2” value in data set [5] (5% O2) is reported as “C (C is 0.02 to 0.05)”. The EC50 in data set [6] (5% O2, inner layers, read-out: Prodrug 5% O2 Inner layers EC50) is 0.01 to 0.5 µM; in data set [6] (5% O2, outer layers, read-out: Prodrug 5% O2 Outer layers EC50), 0.5 to 1 µM; in data set [6] (20% O2, outer layers, read-out: Prodrug 20% O2 Outer layers EC50), 1 to 10 µM.

Broadly, the IC50 is the concentration needed to halve the response being measured. Broadly, the microsomal CLint is the rate of metabolic loss divided by the concentration. Lower therefore signals greater metabolic stability. In general, EC50 refers to the concentration needed to bring the measured effect to its halfway point.
